Results from PubChem BioAssay AID248 (DTP/NCI, 2004).
Inconclusive results and toxic doses are left out. No stated cut-off is given here; in the data, active means T/C of 150% or more; inactive means T/C below 125%.

Tested on: L1210 leukemia ip in BDF1 mice, survival T/C
Experiment: NCI In Vivo Anticancer Drug Screen. Data for tumor model L1210 Leukemia (intraperitoneal) in B6D2F1 (BDF1) mice
Settings: endpoint: mean survival time, higher = longer survival
Procedure, shortened: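 Each compound was tested against a transplantable tumor grown in mice. The endpoint was survival, with treated animals benchmarked against vehicle controls as a simple ratio.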

[1] = dose: 100.0 mg/kg/injection, schedule: Q04DX003 (ip), vehicle: saline
[2] = dose: 200.0 mg/kg/injection, schedule: Q04DX003 (ip), vehicle: saline
[3] = dose: 400.0 mg/kg/injection, schedule: Q04DX003 (ip), vehicle: saline
[4] = dose: 100.0 mg/kg/injection, schedule: Q04DX003 (ip), vehicle: saline with Tween-80
[5] = dose: 200.0 mg/kg/injection, schedule: Q04DX003 (ip), vehicle: saline with Tween-80
[6] = dose: 400.0 mg/kg/injection, schedule: Q04DX003 (ip), vehicle: saline with Tween-80
[7] = dose: 100.0 mg/kg/injection, schedule: Q01DX001 (ip), vehicle: saline
[8] = dose: 200.0 mg/kg/injection, schedule: Q01DX001 (ip), vehicle: saline
[9] = dose: 400.0 mg/kg/injection, schedule: Q01DX001 (ip), vehicle: saline

Measured: T/C

COc1ccc(C(C)(C)CC(C)(C)C)cc1
inactive: dose: 75.0 mg/kg/injection, schedule: Q01DX009 (ip), vehicle: Klucel (hydroxypropylcellulose) (HPC) 111 % of control | dose: 100.0 mg/kg/injection, schedule: Q04DX002 (ip), vehicle: Klucel (hydroxypropylcellulose) (HPC) 108 % of control | dose: 150.0 mg/kg/injection, schedule: Q01DX009 (ip), vehicle: Klucel (hydroxypropylcellulose) (HPC) 100 % of control | dose: 200.0 mg/kg/injection, schedule: Q04DX002 (ip), vehicle: Klucel (hydroxypropylcellulose) (HPC) 118 % of control | dose: 300.0 mg/kg/injection, schedule: Q01DX009 (ip), vehicle: Klucel (hydroxypropylcellulose) (HPC) 91 % of control | dose: 400.0 mg/kg/injection, schedule: Q04DX002 (ip), vehicle: Klucel (hydroxypropylcellulose) (HPC) 101 % of control

Cn1nnnc1/N=C/c1ccccc1
inactive: [1] 105 % of control | [2] 94 % of control | [3] 94 % of control

O=C1COC(=O)c2ccccc2O1
inactive: [4] 101 % of control | [5] 97 % of control | [6] 93 % of control

c1ccc([Si](O[O][Ge]([c]2ccccc2)([c]2ccccc2)[c]2ccccc2)(c2ccccc2)c2ccccc2)cc1
inactive: dose: 100.0 mg/kg/injection, schedule: Q04DX003 (ip), vehicle: Klucel (hydroxypropylcellulose) (HPC) 93 % of control | dose: 200.0 mg/kg/injection, schedule: Q04DX003 (ip), vehicle: Klucel (hydroxypropylcellulose) (HPC) 86 % of control | dose: 400.0 mg/kg/injection, schedule: Q04DX003 (ip), vehicle: Klucel (hydroxypropylcellulose) (HPC) 89 % of control

CCC(N)(C(=O)O)C1CCCCC1 (stereo unspecified)
inactive: [1] 96 % of control | [2] 94 % of control | [3] 93 % of control

c1ccc(CNCCNCCNCc2ccccc2)cc1
inactive: [4] 101 % of control | [5] 98 % of control | [6] 94 % of control

CC(C)N(C)N=Nc1n[nH]nc1C(N)=O
inactive: dose: 200.0 mg/kg/injection, schedule: Q01DX Z (ip), vehicle: carboxymethylcellulose (CMC) 104 % of control

O=Cc1cc(Br)ccc1[N+](=O)[O-]
inactive: [7] 103 % of control | [8] 103 % of control | [9] 101 % of control

OCC1OC2OC(c3ccccc3)(c3ccc(OCc4ccccc4)nc3OCc3ccccc3)OC2C1O (stereo unspecified)
inactive: dose: 100.0 mg/kg/injection, schedule: Q01DX001 (ip), vehicle: other 88 % of control | dose: 200.0 mg/kg/injection, schedule: Q01DX001 (ip), vehicle: other 90 % of control | dose: 400.0 mg/kg/injection, schedule: Q01DX001 (ip), vehicle: other 92 % of control

COc1cc2c(cc1OC)-c1oncc1CCC2
inactive: dose: 100.0 mg/kg/injection, schedule: Q01DX001 (ip), vehicle: carboxymethylcellulose (CMC) 95 % of control | dose: 200.0 mg/kg/injection, schedule: Q01DX001 (ip), vehicle: carboxymethylcellulose (CMC) 106 % of control | dose: 400.0 mg/kg/injection, schedule: Q01DX001 (ip), vehicle: carboxymethylcellulose (CMC) 88 % of control

Cc1ccc(S(=O)(=O)CC#CCOc2ccccc2)cc1
inactive: dose: 50.0 mg/kg/injection, schedule: Q01DX009 (ip), vehicle: saline 92 % of control | [7] 92 % of control | dose: 100.0 mg/kg/injection, schedule: Q01DX009 (ip), vehicle: saline 105 % of control | [8] 97 % of control | dose: 200.0 mg/kg/injection, schedule: Q01DX009 (ip), vehicle: saline 92 % of control | [9] 101 % of control

CC(=O)N1CCC(Cc2ccccc2)CC1
inactive: dose: 75.0 mg/kg/injection, schedule: Q01DX009 (ip), vehicle: saline with Tween-80 104 % of control

CCC(C(=O)O)(c1ccccc1)c1ccccc1
inactive: dose: 100.0 mg/kg/injection, schedule: Q04DX002 (ip), vehicle: gum acacia 93 % of control | dose: 200.0 mg/kg/injection, schedule: Q04DX002 (ip), vehicle: gum acacia 111 % of control | dose: 400.0 mg/kg/injection, schedule: Q04DX002 (ip), vehicle: gum acacia 86 % of control
